This note sets out measurements from PubChem BioAssay AID179 (DTP/NCI, 2004).

This assay has as its system CEM cells HIV-1 protection, formazan growth assay. The experiment in a line: NCI AIDS Antiviral Assay. Conditions: for IC50: measured here: growth of uninfected CEM cells. The procedure, abridged: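 Five concentrations of each compound were applied to infected and uninfected human CEM cells. Protection from HIV-1 was judged from growth measured with a soluble formazan assay.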

Activity calls are given as the source filed them.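 Rule for the calls: active = compounds giving half or more protection of infected cells from virus-caused growth loss, again on retest; inactive = the rest.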 Where a SMILES comes first, the peptide text is derived from it. The star is where a group is joined. Cbz = O=C(OCc1ccccc1)*; NHNH2 = NN* Some results are limits rather than exact numbers.

What is called EC50 is the concentration needed to bring the measured effect to its halfway point. In general, IC50 refers to the concentration that inhibits the measured activity by half. A low value points to higher potency.

For `CCOC(=O)CN1C(=O)Cc2ccccc21`, the EC50 is more than 200 µM and the concentration for half-maximal inhibition (IC50) was found to be 97.7 µM. Turning to `CN1CC(C(=O)C2C(=O)c3ccccc3C2=O)C(=O)C(=O)C(C(=O)C2C(=O)c3ccccc3C2=O)C1` (stereo unspecified), the result was inactive. For `COc1ccccc1NC(=O)C1=C(C)NC(C)=C(C(=O)Nc2ccccc2OC)C1c1ccc(N(C)C)cc1`, the EC50 is more than 42.7 µM and the half-maximal inhibitory concentration (IC50) was determined as 29.5 µM.

As to `COc1cc2c(cc1OC)C(CC1=C(c3ccccc3)CN3CCc4cc(OC)c(OC)cc4C3C1)NCC2` (stereo unspecified), the result was inactive. Take `CN(c1ccccc1Cl)S(=O)(=O)c1ccccc1`: the EC50 was more than 200 µM and the IC50 was found to be 70.8 µM.

As for `C[C@]12CCC[C@](C)(C(=O)O)[C@@H]1CC[C@@]13C[C@@H](CC[C@@H]12)[C@@H](C(=O)O)C3`, the EC50 is more than 200 µM and the IC50 was more than 200 µM. As for `COc1ccc(N2C(=O)C3c4[nH]c5ccc(OCc6ccccc6)cc5c4C4CCC(C(C)C)CC4C3C2=O)cc1` (stereo unspecified), the EC50 is more than 100 µM and the half-maximal inhibitory concentration (IC50) was more than 100 µM. As for `CC(=O)OCC1OC(Nc2ccc3nc(C)n(-c4ccccc4)c(=O)c3c2)C(OC(C)=O)C(OC(C)=O)C1OC(C)=O` (stereo unspecified), the EC50 is more than 100 µM and the half-maximal inhibitory concentration (IC50) stood at 61.7 µM. For `CCCCNC(=S)Nn1c(-c2ccccc2)nc2ccccc2c1=O`, in that order: more than 20.4 µM and more than 20.4 µM.

`COC(=O)c1ccc(-n2c(C)nc(=O)c(-c3ccccc3)c2C)cc1`: the EC50 is more than 100 µM and the IC50 is more than 100 µM. Consider `CC(=O)OCC1OC(Nc2cc(=O)n(C)c(=O)[nH]2)C(OC(C)=O)C(OC(C)=O)C1OC(C)=O` (stereo unspecified), for which the outcome was inactive. On to `C[CH2][Sn]([CH2]C)([O]C(=O)c1ccccc1F)[O]C(=O)c1ccccc1F`, for which the EC50 was more than 29.5 µM and the IC50 was found to be 17.4 µM. For `Cc1ccc(NC(=S)/N=C/c2c(O)[nH]c(=O)[nH]c2=O)c(C)c1`, in that order: more than 200 µM and 151 µM. The matching figures for `CCN(CC)C(=Nc1ccc(Cl)c(Cl)c1)SC(NC=O)=C(Cl)Cl`: more than 200 µM and 19.5 µM. `CCOC(=O)CCC(NC(=O)OCc1ccccc1)C(=O)NC(CCC(=O)OCC)C(=O)NN` (stereo unspecified) (Cbz-Glu(OEt)-Glu(OEt)-NHNH2; configuration not given here): the EC50 was more than 200 µM and the IC50 was more than 200 µM. For the compound `O=C1N(c2ccccc2)C(=O)C2(SC=NN2Cc2ccccc2)N1c1ccccc1` (stereo unspecified), the outcome was inactive. The same measure, in the same setting: under `N=c1o[n-][n+](-c2ccccc2)c1-c1ccccc1` stands “inactive”.

In the case of `CCOC(=O)N1CC(C)=C(C)CN1C(=O)Nc1ccc(Cl)c(Cl)c1`, the EC50 was more than 200 µM and the concentration for half-maximal inhibition (IC50) worked out at 81.3 µM. Regarding `O=S(=O)(O)C(Cc1nc2ccccc2[nH]1)S(=O)(=O)OCCC1S(=O)(=O)OCCOS1(=O)=O` (stereo unspecified), the EC50 is more than 200 µM and the half-maximal inhibitory concentration (IC50) is 107 µM. `CCOC(=O)/C(C#N)=C/c1ccccc1Cl`: the outcome was inactive. With `c1ccc(-c2csc3c2-n2cccc2C3N2CCCC2)cc1` (stereo unspecified), the EC50 is more than 200 µM and the IC50 was 13.5 µM. Turning to `O=S(=O)(O)C(O)CCCC(O)S(=O)(=O)O` (stereo unspecified), the EC50 was more than 200 µM and the IC50 was found to be 10.7 µM. With `Cc1cccc(/C=N/NC(=S)N2CCCCCC2)n1`, the EC50 was more than 200 µM and the IC50 was determined as 0.0631 µM. On to `O=C(O)O`, for which the outcome was inactive. As to `NCCCN=c1ccc2c3c1c(O)c1c(O)ccc(=O)c1c3[nH]n2CCNCCO`, the EC50 is more than 525 µM and the concentration for half-maximal inhibition (IC50) turned out to be 1.07 µM.

With `CCOC(=O)c1cc2ccccc2cc(C(=O)OCC)c1=O`, the EC50 is more than 200 µM and the IC50 was 34.7 µM. The matching figures for `COC1(OC)CC2C(=O)CCCC21OC(C)=O` (stereo unspecified): more than 1020 µM and 22.4 µM.

For `CC(=O)OCC1OC(n2c(C)c(C)cc(C#N)c2=S)C(OC(C)=O)C(OC(C)=O)C1OC(C)=O` (stereo unspecified), the EC50 was more than 200 µM and the IC50 was more than 200 µM. On to `COc1cc([N+](=O)[O-])c(S(=O)(=O)O)cc1N`, for which the EC50 was more than 1000 µM and the IC50 was more than 1000 µM. On to `Cc1nn(C(=O)Cc2ccccc2)c2c1C(c1ccc(N(C)C)cc1)SC(N)=N2` (stereo unspecified), for which the EC50 is 55 µM and the IC50 is more than 200 µM. Turning to `CCOC(=O)c1c(C(=O)OC)nc2n1-c1ccccc1OC2`, the EC50 is more than 832 µM and the IC50 is 64.6 µM.

For `N#C/C(=C\c1cccc(OCc2ccccc2)c1)c1ccc([N+](=O)[O-])cc1`, the EC50 is more than 200 µM and the IC50 was 151 µM. The matching figures for `O=C(Cc1ccccc1)NN1C(=O)C(Cl)C1c1ccccc1Cl` (stereo unspecified): more than 28.8 µM and more than 28.8 µM. Take `O=CNC(CSSCC(NC=O)C(=O)O)C(=O)O` (stereo unspecified): the EC50 was more than 200 µM and the IC50 was more than 200 µM.

For `CC(=O)OC(=C(C#N)C#N)c1nccnc1C(=O)O`, the EC50 is more than 200 µM and the IC50 is more than 200 µM. As to `OCCSCc1cc2c(O)c(c1)Cc1cc(CSCCO)cc(c1O)Cc1cc(CSCCO)cc(c1O)Cc1cc(CSCCO)cc(c1O)C2`, the EC50 is more than 24 µM and the IC50 was 5.01 µM. As to `O=C(/C=C/c1cc(Cl)cc(Cl)c1O)c1cccc(O)c1`, the result was inactive. Consider `CCC(=O)OC1CCn2c1nc1c2C(=O)C(C)=C(NC(C)=O)C1=O` (stereo unspecified), for which the EC50 is more than 200 µM and the IC50 is 1.23 µM. On to `O=C(O)C1Cc2ccccc2OC1=O` (stereo unspecified), for which the EC50 was more than 200 µM and the IC50 was more than 200 µM.

As for `CCC(C)C(=O)c1c(O)c(CC=C(C)C)c2c3c(cc(=O)oc13)C(CC)O2` (stereo unspecified), the EC50 was more than 200 µM and the IC50 amounted to 25.1 µM. On to `[N-]=[N+]=C1C(=O)NC(=O)N2C3OC(CO[C@@H]12)C(O)C3O` (stereo partly specified), for which the EC50 is more than 200 µM and the half-inhibitory concentration (IC50) was more than 200 µM. For `CC(=O)N/C(=C\C=C\CC=O)SC12CC3CC(CC(C3)C1)C2`, the EC50 is more than 200 µM and the IC50 was determined as 12.6 µM. The matching figures for `O=C(O)[C@H](CCC[C@H]1C(=O)O[C@H](c2ccccc2)[C@H](c2ccccc2)N1C(=O)OCc1ccccc1)N[C@@H](c1ccccc1)[C@H](O)c1ccccc1`: more than 89.1 µM and 77.6 µM. On to `COc1ncnc2c1ncn2C1OC(CO)(C(F)(F)F)C(O)C1O` (stereo unspecified), for which the EC50 is more than 200 µM and the IC50 was more than 200 µM. Consider `COc1ccccc1N1C(Cl)C(=O)C1c1c[nH]c2ccccc12` (stereo unspecified), for which the EC50 was more than 151 µM and the IC50 amounted to 129 µM. As for `C=CN1C(=O)OC[C@@H]1c1ccccc1`, the EC50 was more than 513 µM and the half-maximal inhibitory concentration (IC50) is more than 513 µM. With `Cn1c(=O)c2[nH]c(N=O)nc2n(C)c1=O`, the EC50 was more than 200 µM and the half-inhibitory concentration (IC50) is more than 200 µM. Turning to `COc1c(Sc2c(SCSc3cnc4ccccc4c3Sc3cnc4ccccc4c3OC)cnc3ccccc23)cnc2ccccc12`, the EC50 was more than 100 µM and the half-inhibitory concentration (IC50) was more than 100 µM. With `COC(=O)c1cc(Cc2cc(C(c3cc(Cc4cc(Cl)c(O)c(C(=O)OC)c4)c(O)c(C(=O)OC)c3)C(Cl)(Cl)Cl)cc(C(=O)OC)c2O)cc(Cl)c1O`, the EC50 was more than 200 µM and the half-maximal inhibitory concentration (IC50) is more than 200 µM. In the case of `CC1CC/C(=C\c2ccc(Cl)cc2)C(=O)/C1=C\c1ccc(Cl)cc1` (stereo unspecified), the EC50 was more than 200 µM and the concentration for half-maximal inhibition (IC50) came out at 42.7 µM. For `CCC(C)C(NC(=O)c1ccccc1SC(=O)OCCCCCl)C(N)=O` (stereo unspecified), in that order: 2.75 µM and more than 200 µM. The matching figures for `CO[C@H](C(=O)O[C@H]1C(=O)N2CCC3CCC1C32C)c1ccccc1` (stereo partly specified): more than 759 µM and 501 µM. The matching figures for `COc1cc(N)c2c(c1)SC(c1ccccc1)C(=O)N2` (stereo unspecified): more than 200 µM and 120 µM.

As to `N#Cc1nc(C(=O)c2ccccc2)oc1N`, the EC50 is more than 200 µM and the IC50 was more than 200 µM. For `C/C(=C\CNc1ncnc2c1ncn2C1CCCCO1)COP(=O)(O)O` (stereo unspecified), the result was inactive. As for `CCN(CC)CC(=O)Nc1c(C)ccc(N)c1C`, the EC50 was more than 200 µM and the IC50 is more than 200 µM.

Consider `O=[N+]([O-])c1cccc(N=Cc2ccccc2O)c1`, for which the EC50 is more than 200 µM and the half-inhibitory concentration (IC50) is 91.2 µM. The matching figures for `O=[N+]([O-])/C(C(Cl)=C(Cl)Cl)=C(/Cl)SCc1ccccc1`: more than 200 µM and 11 µM.

In the case of `CCCCCCc1cc2c(C)c(C)c(=O)oc2cc1OCCCOc1cc2oc(=O)c(C)c(C)c2cc1CCCCCC`, the EC50 was more than 22.9 µM and the IC50 was more than 22.9 µM.

Take `CNC(=O)CN(CC(=O)NC)C(=O)NC`: the EC50 was more than 120 µM and the IC50 was more than 120 µM. Consider `O=C(/C=C/c1ccc(F)c(F)c1)OCCc1ccccc1`, for which the EC50 is more than 200 µM and the 50% inhibitory concentration (IC50) came to 38.9 µM. For `O=[N+]([O-])c1ccc2c(N=Nc3ccc4ccccc4c3O)c(O)cc(S(=O)(=O)O)c2c1`, in that order: more than 200 µM and 27.5 µM. For the compound `COC(=O)[C@@H]1CN(C(=O)CCc2ccccc2)C(=O)N1C(=O)OCc1ccccc1`, the EC50 is more than 200 µM and the IC50 was 97.7 µM. For `CCS(=O)(=O)[C@@]1(C#N)CC[C@]1(C#N)S(=O)(=O)CC`, in that order: 646 µM and 871 µM.

`Cc1ccc(N=C2S/C(=C3/CCC=C3N3CCOCC3)N(c3ccc(Cl)cc3)C2=Nc2ccc(C)cc2)cc1`: the EC50 was more than 200 µM and the IC50 was more than 200 µM. Turning to `Cc1ccc(N2C(=O)C3c4[nH]c5ccc(C)cc5c4C4CCC(C(C)(C)C)CC4C3C2=O)cc1` (stereo unspecified), the EC50 is more than 200 µM and the concentration for half-maximal inhibition (IC50) was 13.8 µM. For `CC1(C)COC(c2ccccc2-c2ccccc2)=N1`, in that order: more than 200 µM and 132 µM. For `COC(=O)/C=C/c1ccc2c(c1)CCC2`, in that order: more than 200 µM and 6.92 µM. Turning to `COC12C=CC(CC1)C(C)(C)C2OS(C)(=O)=O` (stereo unspecified), the outcome was inactive. `Cc1ccc(S(=O)(=O)N2CCC3(C(/C=C/c4ccccc4)=Nc4ccccc43)C2c2ccccc2)cc1` (stereo unspecified): the result was inactive.

Consider `NC(=O)C(NC=O)c1ccccc1` (stereo unspecified), for which the EC50 was more than 200 µM and the half-maximal inhibitory concentration (IC50) was more than 200 µM.
